Measured values taken from ChEMBL document CHEMBL6114951, “Discovery of 3-amide-pyrimidine-based derivatives as potential fms-like tyrosine receptor kinase 3 (FLT3) inhibitors for treating acute myelogenous leukemia” (Bioorg Med Chem Lett, 2025).
Values belong to the compound of their own block, whether it stands above or below them. Active and inactive are the calls of the source. No cut-off for these calls is given here.

Tests used:
HCT-116 = test: cells; settings: Homo sapiens
Description: Antiproliferative activity against human HCT-116 cells by CCK-8 assay

MV4-11 [1] = test: cells; settings: Homo sapiens
Description: Antiproliferative activity against human MV4-11 cells by CCK-8 assay

A549 = test: cells; settings: Homo sapiens
Description: Antiproliferative activity against human A549 cells by CCK-8 assay

MV4-11 [2] = test: Cell cycle arrest in human MV4-11 cells assessed as accumulation at G1-phase at 0.2 uM measured after 24 hrs by propidium iodide staining based flow cytometry (reference value: 70.31%); type: functional
MV4-11 [3] = test: Induction of apoptosis in human MV4-11 cells assessed as late apoptotic cells at 5 uM measured after 24 hrs by Annexin V-FITC/propidium iodide staining based flow cytometry (reference value: 2%); type: functional
MV4-11 [4] = test: Induction of apoptosis in human MV4-11 cells assessed as necrotic cells at 0.2 uM measured after 24 hrs by Annexin V-FITC/propidium iodide staining based flow cytometry (reference value: 0.2%); type: functional
MV4-11 [5] = test: Induction of morphological changes in human MV4-11 cells assessed as cell wrinkling; type: functional, cell-based
MV4-11 [6] = test: Induction of mitochondrial membrane potential loss in human MV4-11 cells assessed as cells with high MMP (aggregates) at 10 uM measured after 24 hrs by JC-1 staining based flow cytometry (reference value: 97%); type: functional
MV4-11 [7] = test: Cell cycle arrest in human MV4-11 cells assessed as accumulation at G1-phase at 10 uM measured after 24 hrs by propidium iodide staining based flow cytometry (reference value: 70.31%); type: functional
MV4-11 [8] = test: Induction of mitochondrial membrane potential loss in human MV4-11 cells assessed as cells with low MMP (monomers) at 0.2 uM measured after 24 hrs by JC-1 staining based flow cytometry (reference value: 2.9%); type: functional
c-Kit = c-Kit (Homo sapiens, UniProt P10721); test: Inhibition of c-Kit (unknown origin) at 100 uM relative to control; type: toxicity
Sequence of c-Kit (P10721 whole entry): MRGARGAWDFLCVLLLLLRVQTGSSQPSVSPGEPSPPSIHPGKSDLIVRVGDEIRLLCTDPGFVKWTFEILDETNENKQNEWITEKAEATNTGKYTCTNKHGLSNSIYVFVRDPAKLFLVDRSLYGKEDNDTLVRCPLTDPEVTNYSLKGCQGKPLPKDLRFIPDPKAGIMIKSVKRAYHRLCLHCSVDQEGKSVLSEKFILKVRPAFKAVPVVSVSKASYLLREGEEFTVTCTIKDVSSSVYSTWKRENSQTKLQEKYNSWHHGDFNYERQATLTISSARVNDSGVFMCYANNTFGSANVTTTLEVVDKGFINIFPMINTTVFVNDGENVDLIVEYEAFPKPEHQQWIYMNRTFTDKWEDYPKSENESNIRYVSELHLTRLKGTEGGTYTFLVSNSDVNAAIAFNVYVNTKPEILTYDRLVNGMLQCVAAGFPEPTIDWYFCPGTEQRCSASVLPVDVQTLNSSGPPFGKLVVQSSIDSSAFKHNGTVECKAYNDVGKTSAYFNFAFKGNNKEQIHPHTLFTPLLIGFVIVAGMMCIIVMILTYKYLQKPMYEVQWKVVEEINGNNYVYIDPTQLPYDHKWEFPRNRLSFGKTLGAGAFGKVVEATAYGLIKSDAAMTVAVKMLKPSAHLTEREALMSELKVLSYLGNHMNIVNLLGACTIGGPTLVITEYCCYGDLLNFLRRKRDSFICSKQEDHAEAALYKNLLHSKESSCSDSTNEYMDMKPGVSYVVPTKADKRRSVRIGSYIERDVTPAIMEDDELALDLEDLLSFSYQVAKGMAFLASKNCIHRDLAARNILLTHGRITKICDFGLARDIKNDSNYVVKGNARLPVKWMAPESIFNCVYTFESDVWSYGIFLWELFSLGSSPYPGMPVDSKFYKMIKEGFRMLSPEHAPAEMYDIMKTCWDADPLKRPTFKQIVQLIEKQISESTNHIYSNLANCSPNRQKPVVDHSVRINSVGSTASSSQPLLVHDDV

MV4-11 [9] = test: Cell cycle arrest in human MV4-11 cells assessed as accumulation at G2-phase at 0.2 uM measured after 24 hrs by propidium iodide staining based flow cytometry (reference value: 8.87%); type: functional
MV4-11 [10] = test: Induction of apoptosis in human MV4-11 cells measured after 24 hrs by Annexin V-FITC/propidium iodide staining based flow cytometry; type: functional, cell-based; settings: dose 0.2-5 µM
MV4-11 [11] = test: Induction of apoptosis in human MV4-11 cells assessed as early apoptotic cells at 5 uM measured after 24 hrs by Annexin V-FITC/propidium iodide staining based flow cytometry (reference value: 5.2%); type: functional
MV4-11 [12] = test: Induction of apoptosis in human MV4-11 cells assessed as viable cells at 5 uM measured after 24 hrs by Annexin V-FITC/propidium iodide staining based flow cytometry (reference value: 92.7%); type: functional; settings: read-out: Activity
MV4-11 [13] = test: Cell cycle arrest in human MV4-11 cells assessed as increase in accumulation at G0/G1-phase measured after 24 hrs by propidium iodide staining based flow cytometry; type: functional; settings: dose 0.2-10 µM
MV4-11 [14] = test: Induction of mitochondrial membrane potential loss in human MV4-11 cells assessed as cells with high MMP (aggregates) at 2 uM measured after 24 hrs by JC-1 staining based flow cytometry (reference value: 97%); type: functional
MV4-11 [15] = test: Induction of apoptosis in human MV4-11 cells assessed as late apoptotic cells at 0.2 uM measured after 24 hrs by Annexin V-FITC/propidium iodide staining based flow cytometry (reference value: 2%); type: functional
MV4-11 [16] = test: Cell cycle arrest in human MV4-11 cells assessed as accumulation at G2-phase at 10 uM measured after 24 hrs by propidium iodide staining based flow cytometry (reference value: 8.87%); type: functional
MV4-11 [17] = test: Induction of apoptosis in human MV4-11 cells assessed as early apoptotic cells at 2 uM measured after 24 hrs by Annexin V-FITC/propidium iodide staining based flow cytometry (reference value: 5.2%); type: functional
MV4-11 [18] = test: Induction of apoptosis in human MV4-11 cells assessed as necrotic cells at 5 uM measured after 24 hrs by Annexin V-FITC/propidium iodide staining based flow cytometry (reference value: 0.2%); type: functional
in vitro = settings: human, HEK293T cells
Description: Cytotoxicity against HEK293T cells by CCK-8 assay

MV4-11 [19] = test: Cell cycle arrest in human MV4-11 cells assessed as accumulation at S-phase at 0.2 uM measured after 24 hrs by propidium iodide staining based flow cytometry (reference value: 20.83%); type: functional
MV4-11 [20] = test: Induction of apoptosis in human MV4-11 cells assessed as early apoptotic cells at 0.2 uM measured after 24 hrs by Annexin V-FITC/propidium iodide staining based flow cytometry (reference value: 5.2%); type: functional
MV4-11 [21] = test: Cell cycle arrest in human MV4-11 cells assessed as accumulation at G1-phase at 2 uM measured after 24 hrs by propidium iodide staining based flow cytometry (reference value: 70.31%); type: functional
MV4-11 [22] = test: Cell cycle arrest in human MV4-11 cells assessed as accumulation at S-phase at 2 uM measured after 24 hrs by propidium iodide staining based flow cytometry (reference value: 20.83%); type: functional
MV4-11 [23] = test: Induction of apoptosis in human MV4-11 cells assessed as late apoptotic cells at 2 uM measured after 24 hrs by Annexin V-FITC/propidium iodide staining based flow cytometry (reference value: 2%); type: functional
[24] = target: Mast/stem cell growth factor receptor Kit (Homo sapiens, UniProt P10721)
Sequence of Mast/stem cell growth factor receptor Kit (P10721 whole entry, the tested form may be a part): as the sequence (P10721 whole entry) above

MV4-11 [25] = test: Induction of morphological changes in human MV4-11 cells assessed as cell fragmentation; type: functional, cell-based
MV4-11 [26] = test: Induction of mitochondrial membrane potential loss in human MV4-11 cells assessed as cells with high MMP (aggregates) at 0.2 uM measured after 24 hrs by JC-1 staining based flow cytometry (reference value: 97%); type: functional
MV4-11 [27] = test: Induction of apoptosis in human MV4-11 cells assessed as necrotic cells at 2 uM measured after 24 hrs by Annexin V-FITC/propidium iodide staining based flow cytometry (reference value: 0.2%); type: functional
MV4-11 [28] = test: Induction of apoptosis in human MV4-11 cells assessed as viable cells at 2 uM measured after 24 hrs by Annexin V-FITC/propidium iodide staining based flow cytometry (reference value: 92.7%); type: functional; settings: read-out: Activity
MV4-11 [29] = test: Induction of mitochondrial membrane potential loss in human MV4-11 cells measured after 24 hrs by JC-1 staining based flow cytometry; type: functional, cell-based; settings: dose 0.2-10 µM
MV4-11 [30] = test: Cell cycle arrest in human MV4-11 cells assessed as accumulation at G2-phase at 2 uM measured after 24 hrs by propidium iodide staining based flow cytometry (reference value: 8.87%); type: functional
MV4-11 [31] = test: Induction of apoptosis in human MV4-11 cells assessed as viable cells at 0.2 uM measured after 24 hrs by Annexin V-FITC/propidium iodide staining based flow cytometry (reference value: 92.7%); type: functional; settings: read-out: Activity
MV4-11 [32] = test: Induction of mitochondrial membrane potential loss in human MV4-11 cells assessed as cells with low MMP (monomers) at 10 uM measured after 24 hrs by JC-1 staining based flow cytometry (reference value: 2.9%); type: functional
MV4-11 [33] = test: Cell cycle arrest in human MV4-11 cells assessed as accumulation at S-phase at 10 uM measured after 24 hrs by propidium iodide staining based flow cytometry (reference value: 20.83%); type: functional
MV4-11 [34] = test: Induction of mitochondrial membrane potential loss in human MV4-11 cells assessed as cells with low MMP (monomers) at 2 uM measured after 24 hrs by JC-1 staining based flow cytometry (reference value: 2.9%); type: functional
[35] = Effect on total STAT5 expression in human MV4-11 cells at 0.2 uM measured after 24 hrs by Western blot analysis; type: toxicity, cell-based; settings: mv4-11, 24 h
[36] = Effect on total AKT expression in human MV4-11 cells at 0.2 uM measured after 24 hrs by Western blot analysis; type: toxicity, cell-based; settings: mv4-11, 24 h
[37] = Effect on total ERK expression in human MV4-11 cells at 0.2 uM measured after 24 hrs by Western blot analysis; type: toxicity, cell-based; settings: mv4-11, 24 h
[38] = Effect on total FLT3 expression in human MV4-11 cells at 0.2 uM measured after 24 hrs by Western blot analysis; type: toxicity, cell-based; settings: mv4-11, 24 h

SMILES: CN1CCC(N(C)c2ncc(C(N)=O)c(Nc3ccc(Oc4ccccc4)cc3)n2)CC1
IC50 (HCT-116): 3.93 µM
IC50 (MV4-11 [1]): 0.66 µM
IC50 (A549): 7.67 µM

SMILES: CC(C)N1CCC(Nc2ncc(C(N)=O)c(Nc3ccc(Oc4ccccc4)cc3)n2)CC1
Activity (MV4-11 [2]): 75.47%
IC50 (HCT-116): 3.14 µM
Activity (MV4-11 [3]): 35.8%
Activity (MV4-11 [4]): 0.3%
Activity (MV4-11 [5]): Active
Activity (MV4-11 [6]): 86.6%
Activity (MV4-11 [7]): 89.91%
Activity (MV4-11 [8]): 3.8%
inhibition at 100 µM (c-Kit): 17.5%
Activity (MV4-11 [9]): 4.45%
Activity (MV4-11 [10]): Dose-dependent-effect
Activity (MV4-11 [11]): 51.7%
viability at 5 µM (MV4-11 [12]): 11.7%
Activity (MV4-11 [13]): Dose-dependent-effect
IC50 (MV4-11 [1]): 0.59 µM
Activity (MV4-11 [14]): 94.9%
Activity (MV4-11 [15]): 6%
Activity (MV4-11 [16]): 5.7%
Activity (MV4-11 [17]): 50.5%
Activity (MV4-11 [18]): 0.8%
IC50 (in vitro): 40.2 µM
Activity (MV4-11 [19]): 20.08%
Activity (MV4-11 [20]): 15.1%
Activity (MV4-11 [21]): 82.96%
Activity (MV4-11 [22]): 11.9%
Activity (MV4-11 [23]): 16.4%
IC50 (A549): 7.73 µM
IC50 [24]: > 100 µM
Activity (MV4-11 [25]): Active
Activity (MV4-11 [26]): 96.2%
Activity (MV4-11 [27]): 0.3%
viability at 2 µM (MV4-11 [28]): 32.8%
Activity (MV4-11 [29]): Dose-dependent-effect
Activity (MV4-11 [30]): 5.41%
viability at 0.2 µM (MV4-11 [31]): 78.5%
Activity (MV4-11 [32]): 13.1%
Activity (MV4-11 [33]): 4.39%
Activity (MV4-11 [34]): 5%

SMILES: CN1CCC(Nc2nc(Nc3ccc(Oc4ccccc4)cc3)c3c(=O)[nH]cc(Br)c3n2)CC1 [DENFIVONTINIB]
Activity (MV4-11 [2]): 89.36%
IC50 (HCT-116): 3.13 µM
Activity (MV4-11 [4]): 0.7%
Activity [35]: Non-toxic
Activity (MV4-11 [8]): 14.6%
Activity [36]: Non-toxic
Activity (MV4-11 [9]): 4.11%
Activity [37]: Non-toxic
IC50 (MV4-11 [1]): 0.003 µM
Activity (MV4-11 [15]): 33.9%
IC50 (in vitro): 9.67 µM
Activity (MV4-11 [19]): 6.52%
Activity (MV4-11 [20]): 49.6%
IC50 (A549): 0.14 µM
IC50 [24]: 0.0038 µM
Activity (MV4-11 [26]): 85.1%
Activity [38]: Non-toxic
viability at 0.2 µM (MV4-11 [31]): 15.8%

SMILES: CN1CCC(Nc2nc(Nc3ccc(Oc4ccccc4)cc3)c3ccccc3n2)CC1
IC50 (HCT-116): 8.51 µM
IC50 (MV4-11 [1]): 5.13 µM
IC50 (A549): 4.05 µM

SMILES: CC(=O)N1CCC(Nc2nc(Nc3ccc(Oc4ccccc4)cc3)c3ccccc3n2)CC1
IC50 (HCT-116): 24.2 µM
IC50 (MV4-11 [1]): 6.96 µM
IC50 (A549): 9.87 µM

SMILES: CN1CCC(Nc2ncc(C(N)=O)c(Nc3ccc(Oc4ccccc4)cc3)n2)CC1
IC50 (HCT-116): 1.9 µM
IC50 (MV4-11 [1]): 2.09 µM
IC50 (A549): 2.88 µM

SMILES: CCNC(=O)c1c(C)nc(NC2CCN(C)CC2)nc1Nc1ccc(Oc2ccccc2)cc1
IC50 (HCT-116): 23.4 µM
IC50 (MV4-11 [1]): 5.03 µM
IC50 (A549): 20 µM

SMILES: Cc1nc(NC2CCN(C)CC2)nc(Nc2ccc(Oc3ccccc3)cc2)c1C(=O)O
IC50 (HCT-116): > 50 µM
IC50 (MV4-11 [1]): > 50 µM
IC50 (A549): > 50 µM

SMILES: NC(=O)c1cnc(NC2CCCC2)nc1Nc1ccc(Oc2ccccc2)cc1
IC50 (HCT-116): 23.3 µM
IC50 (MV4-11 [1]): 7.68 µM
IC50 (A549): 20 µM

SMILES: CCOC(=O)c1c(C)nc(NC2CCN(C)CC2)nc1Nc1ccc(Oc2ccccc2)cc1
IC50 (HCT-116): 1.35 µM
IC50 (MV4-11 [1]): 5.36 µM
IC50 (A549): 7.86 µM

SMILES: CN1CCC(N(C)c2ncc(C#N)c(Nc3ccc(Oc4ccccc4)cc3)n2)CC1
IC50 (HCT-116): 5.99 µM
IC50 (MV4-11 [1]): 2.09 µM
IC50 (A549): 12.5 µM

Further lines, results first:

IC50 (HCT-116): > 50 µM
IC50 (MV4-11 [1]): 35.2 µM
IC50 (A549): > 50 µM
SMILES: N#Cc1cnc(NC2CCCC2)nc1Nc1ccc(Oc2ccccc2)cc1

IC50 (HCT-116): > 50 µM
IC50 (MV4-11 [1]): 30.9 µM
IC50 (A549): > 50 µM
SMILES: N#Cc1cnc(N2CCCC2)nc1Nc1ccc(Oc2ccccc2)cc1

IC50 (HCT-116): 8.99 µM
IC50 (MV4-11 [1]): 12.5 µM
IC50 (A549): > 50 µM
SMILES: CN1CCC(Nc2ncc(C#N)c(Nc3ccc(Oc4ccccc4)cc3)n2)CC1

IC50 (HCT-116): > 50 µM
IC50 (MV4-11 [1]): 7.19 µM
IC50 (A549): > 50 µM
SMILES: CC(C)N1CCC(Nc2ncc(C#N)c(Nc3ccc(Oc4ccccc4)cc3)n2)CC1

IC50 (HCT-116): > 50 µM
IC50 (MV4-11 [1]): 35.8 µM
IC50 (A549): 10.6 µM
SMILES: NC(=O)c1cnc(N2CCCC2)nc1Nc1ccc(Oc2ccccc2)cc1
